From patent US11571480B2, “Multi-ligand drug conjugates and uses thereof” (priority 2015, dated 2023)
Numbered stars: 1 amine (or outer) side, 2 acyl side, 3 side chain; on linkers, the order of the positions; unused ones are H or OH. Bridge positions count the residues as written; N and C are the ends. Square brackets hold non-standard residues; d marks the D form. Peptide text beside a SMILES is read from it. I, II: the chains in the order shown. * marks the point of attachment. Hexanoyl(6-succinimido-3yl) = O=C1CC([*:1])C(=O)N1CCCCCC(=O)[*:2]; Pteroyl = Nc1nc2ncc(CNc3ccc(C(=O)*)cc3)nc2c(=O)[nH]1; Dolaproine = CO[C@@H]([C@@H]1CCCN1)[C@@H](C)C(=O)O; Dil = CC[C@H](C)[C@H](NC)[C@@H](CC(=O)O)OC; PABC = O=C(OCc1ccc(N[*:1])cc1)[*:2]; X1 = C[C@@H](N*)[C@@H](O)c1ccccc1; Cit = NC(=O)NCCC[C@H](N)C(=O)O; NMeV = CN[C@H](C(=O)O)C(C)C

Tests used:
[1] = tested on: KB (folate receptor positive cell); assay: Endocytosis test of conjugate LDC10B (FITC conjugates, confocal microscope); type: cell-based, human; design: endocytosis after pre-incubation with free Folate: dose or concentration left out as unconfirmed
Description: (§1) The involved conjugates are as follows: Folate-FITC (FITC-ACP-Lys (Folate)-OH), 10B-FITC, and 10A-FITC.
(§2) Culture medium: RPMI 1640 Medium, no folic acid
(§3) 1) human nasopharyngeal cancer cell line KB, melanoma cell line A375, human lung cancer cell H460, ovarian cancer cell SKOV3, breast cancer cell line HCC1954 were incubated at 37° C., 5% CO2 in RPMI 1640 medium containing 10% fetal bovine serum, the cells were passaged every 2-3 days.
(§4) 2) human nasopharyngeal cancer cell line KB, melanoma cell line A375, human lung cancer cell H460, ovarian cancer cell SKOV3, breast cancer cell line HCC1954 were plated at 1×10^3 cells per well (96-well plate) and incubated for 8-12 h at 37° C., 5% CO2.
(§5) 3) 1 μM of FITC conjugates or control was added to the cells in the plate and incubated for 10-15 min at 37° C. The culture medium in the wells was then removed by aspiration and the cells were washed with PBS for three times.
(§6) 4) cells were then imaged with confocal microscope (brand) to visualize endocytosis.

[2] = tested on: A375 (folate receptor negative cell); assay: as above; type: cell-based; conditions: 1 μM FITC conjugate, 10-15 min at 37° C.
Description: as §1, §2, §3, §4, §5, §6

[3] = tested on: human lung cancer cell H460; assay: Cytotoxicity test of conjugate LDC10BR; type: cell-based; conditions: H460, incubated 15-30 min, then 2-3 days
Description: as §2
(§7) 1) human nasopharyngeal cancer cell line KB, melanoma cell line A375, and human lung cancer cell H460 were incubated at 37° C., 5% CO2 in RPMI 1640 medium containing 10% fetal bovine serum, the cells were passaged every 2-3 days.
(§8) 2) human nasopharyngeal cancer cell line KB, melanoma cell line A375, and human lung cancer cell H460 were plated at 1×10^3 cells per well (96-well plate) and incubated for 8-12 h at 37° C., 5% CO2.
(§9) 3) Stock solutions of LDC conjugates or control were prepared in PBS solution. 100 μL/well of serially diluted LDC conjugates or control was added to the cells in the plate and incubated for 15-30 min at 37° C., 5% CO2. The culture medium in the wells was then removed by aspiration and the cells were incubated in fresh culture medium without conjugates (150 μL/well) for 2-3 days at 37° C., 5% CO2.
(§10) 4) CellTiter 96® Aqueous One Solution Cell Proliferation Assay (Promega) was added to each well to measure the amount of […] cells, and the plate was incubated in an incubator for 1 h at 37° C., 5% CO2.
(§11) 5) the plate was read at 490 nm on a microplate reader, and the cell survivals were compared for cells with or without the treatment of LDC conjugates. The LDC drug concentrations that are required for 50% cell death (IC50 values) were determined.

[4] = tested on: human nasopharyngeal cancer cell line KB; assay: Cytotoxicity test of conjugate LDC10BR; type: cell-based; conditions: incubated 15-30 min, then 2-3 days
Description: as §2, §7, §8, §9, §10, §11

melanoma cell line A375 = assay: Cytotoxicity test of conjugate LDC10BR; type: cell-based; conditions: A375, incubated 15-30 min, then 2-3 days
Description: as §2, §7, §8, §9, §10, §11

[5] = tested on: receptor positive cell lines; assay: Cytotoxicity test of conjugate LDC10BR, comparison over cell lines; type: cell-based
Description: as §2, §7, §8, §9, §10, §11

Row | Molecule | endocytosis (enters cells) ([1]; 1 μM FITC conjugate, 10-15 min at 37° C., KB cells) | endocytosis after pre-incubation with free Folate ([1]; pre-incubating KB cells with (50 fold excess of conjugate) free Folate, data not shown) | endocytosis (enters cells) [2] | IC50 [3] | IC50 [4] | IC50 (melanoma cell line A375) | cytotoxicity compared with bi-ligand conjugate LDC10B (in words) [5]
1 | FITC-ACP-Lys (Folate)-OH [Folate-FITC] | enters KB cells | completely blocked | but not A375 cells |  |  |  | 
2 | CC[C@H](C)[C@@H]([C@@H](CC(=O)N1CCC[C@H]1[C@H](OC)[C@@H](C)C(=O)N[C@H](C)[C@@H](O)c1ccccc1)OC)N(C)C(=O)[C@@H](NC(=O)[C@H](C(C)C)N(C)C(=O)OCc1ccc(NC(=O)[C@H](CCCNC(N)=O)NC(=O)[C@@H](NC(=O)CCCCCN2C(=O)CC(SC[C@H](NC(=O)[C@H](CC(=O)O)NC(=O)CNC(=O)[C@H](CCCNC(=N)N)NC(=O)[C@H](CCC(=O)O)NC(=O)c3ccc(NCc4cnc5[nH]c(N)nc(=O)c5n4)cc3)C(=O)N[C@@H](CCCCN)C(=O)N[C@@H](CCC(=O)O)C(=O)N[C@@H](Cc3ccccc3)C(=O)N[C@@H](CC(C)C)C(=O)N[C@@H](Cc3c[nH]cn3)C(=O)N3CCC[C@H]3C(=O)N[C@@H](CO)C(=O)N[C@@H](CCCCN)C(=O)N[C@H](C(=O)N[C@@H](CC(=O)O)C(=O)N[C@@H](CC(C)C)C(=O)N3CCC[C@H]3C(=O)N[C@@H](CCCNC(=N)N)C(=O)O)C(C)C)C2=O)C(C)C)cc1)C(C)C (stereo partly shown) [LDC10BR] (I: Pteroyl-ERGDCKEFLHPSKVDLPR-OH / II: V[Cit][PABC][NMeV]V[Dil][Dolaproine]-X1; linker I:5-II:N via Hexanoyl(6-succinimido-3yl)) |  |  |  | 6.4 µM | 6.6 µM | 38.1 µM | comparable to the bi-ligand conjugate LDC10B
